In experiment [1] the test system is platelets. As to the kind of experiment: Pressure increase in collagen-coated microchip 1, citric acid-treated blood with arachidonic acid or collagen (Examples 16 to 18). The following applies: subject G. The experiment is classed as ex vivo. The method, then: (§1) In the first substrate 100, the length, depth and width of the channel (capillary) 101 were 20 mm, 50 μm and 2 mm, respectively.
The experiments a to f in Example 16 were carried out for the subject G 6 hours after dosing with 100 mg of aspirin.
Using blood of the subject G collected 6 hours after dosing with 100 mg of aspirin, experiments were carried out in the same manner as in Examples 16d to f except that the collagen to be added was increased to 12 μl or 18 μl.

The subject of experiment [2] is platelets. Conditions: subject D, blood collected 6 hours after oral 100 mg clopidogrel, 6 μl of 100 μM ADP in about 600 μl blood, 20 μl/min.
Procedure: Two transparent substrates, that is, the first substrate 100 shown in FIG. 1(A) and the second substrate 110 shown in FIG. 1(B) (injection-molded products manufactured by Richell Corporation) were prepared. The side of the first substrate 100 wherein a groove corresponding to a capillary 101 opens and the side of the second substrate 110 having a platelet-adhesive surface 106 were bonded together such that these face to each other using a silane coupling agent and thermocompression bonding, to provide the microchip 1 shown in FIG. 1(C). In the first substrate 100, the length, depth and width of the channel (capillary) 101 were 20 mm, 50 μm and 2 mm, respectively. In terms of the channel dividing section 102, dividing walls 103 each having a length of 1.5 mm, width of 50 μm and height of 50 μm were placed at equal intervals of 50 μm, and this part was used as the channel dividing section. In the second substrate, each of the holes corresponding to the inlet and the outlet was a penetrating hole having a circular cross section and an inner diameter of 2 mm and a depth of 2 mm. At the position on the second substrate 110 which is overlapped with the channel dividing section 102 of the first substrate 100, about 10 μl of 3 mg/ml collagen type I (manufactured by Nitta Gelatin Inc.) was applied and dried under vacuum to provide a platelet-adhesive surface 106. […]
In experiment [3] the test system is platelets. In words: Pressure increase in glass-surface microchip 2, citric acid-anticoagulated blood with ADP (Examples 8 to 10). The experiment is classed as ex vivo. From the text:
The first substrate 200 shown in FIG. 3A and the second substrate 210 shown in FIG. 3B were laminated with and bonded to each other, to provide the microchip 2 shown in FIG. 3C. In terms of the substrate 200, a substrate made of PDMS (Fluidware) was used, and the depth of all the channels was 120 μm; the channel width was 1 mm; the length of the comb was 1 mm; the width of the comb was 50 μm; and the groove width was 50 μm. In terms of the substrate 210, a slide glass was used, and penetrating holes corresponding to the inlet and the outlet were provided as in the substrate 110, but, unlike the substrate 110, collagen was not applied since the glass plays a role as a platelet-adhesive surface. […] The mineral oil was injected from the pump 209 into the microchip 2 at a flow rate of 20 μl/min., and the inflow pressure of the mineral oil was measured by a pressure sensor which is not shown. Pressure changes were measured by carrying out an experiment which was the same as that in Example 8 except that ADP (manufactured by Wako Pure Chemical Industries, Ltd.) was further added to the blood anticoagulated with citric acid in the reservoir 207 to a final concentration of […]. Pressure changes were measured by carrying out an experiment which was the same as that in Example 9 except that blood collected 3 hours after dosing with 75 mg clopidogrel (Sanofi-aventis) was used.

Experiment [4] deals with platelets. As to the kind of experiment: Camera images of platelet adherence in collagen-coated microchip 1 (Example 7). Type of experiment: cell-based. The following applies: ADP 0.025, 0.05, 0.1 μM in citric acid-treated blood, 8 μl/min, image after 1 minute. The method, then: as §1
A pump 109 was connected to the reservoir 107 via a tube, and the pressure exerted on the pump was measured with a pressure sensor which is not shown. In the reservoir 107, a cylindrical stirring bar 108 having a diameter of 2 mm and a length of 5 mm, which was prepared by coating an iron cylinder with PMEA, was contained. The stirring bar 108 was set such that it can be rotated at 60 to 180 rpm by the magnetic force of a stirrer 113 placed under the heater 115 which was heated to 37° C. An outlet duct 112 was connected to the outlet such that the blood after the analysis can be discharged. A camera 111 to which an image analyzer 114 was connected was placed above the channel dividing section 102 of the microchip 1, thereby allowing observation of the state of platelet activation in the channel dividing section 102.
An experiment was carried out using the microchip 1 and the system A in Example 1 for diagnosis by images. The pump 109 was filled with mineral oil, and the reservoir 107 was filled with blood anticoagulated with citric acid. The mineral oil was sent to the reservoir 107 using the pump 109 at a flow rate of 8 μl/min. to allow the blood to flow into the microchip 1. […]

Experiment [5] deals with platelets. As to the kind of experiment: Pressure increase in collagen-coated microchip 1, hirudin-anticoagulated blood with agent added (Examples 19 to 22). The experiment is classed as cell-based. The following applies: flow rate 7 μl/min, ReoPro 0.4 or 0.8 μg/ml. The method, then: as §1
(a) Blood was collected from the subject D using a hirudin blood collection tube (Multiplate Services GmbH), and about 600 μl of the blood anticoagulated with hirudin was filled in the reservoir 207. The pump 209 was filled with mineral oil and connected to the reservoir 207, whose tip was further connected to the inlet 104 in the microchip 1.

In the case of `CC(=O)Oc1ccccc1C(=O)O` [aspirin], the “pressure increase of blood collected after aspirin with increased collagen” value in the experiment on platelets [1] (6 hours after 100 mg aspirin, collagen increased to 12 μl or 18 μl, 20 μl/min (FIG. 19)) is given as “can also be made to cause pressure increase by increasing the collagen to be added”. Besides, the “anti-platelet effect of aspirin by pressure increase” value in the experiment on platelets [1] (6 hours after dosing with 100 mg aspirin, arachidonic acid or collagen added, 20, 10, 5 μl/min) is given as “anti-platelet effect of aspirin can be analyzed”.

Take `COC(=O)[C@H](c1ccccc1Cl)N1CCc2sccc2C1` [clopidogrel]: the “pressure increase after administration of clopidogrel” value with platelets [2] is recorded as “pressure increase delayed”. Also, in the experiment on platelets [3] (blood collected 3 hours after dosing with 75 mg clopidogrel, ADP 2 nM, 20 μl/min), the “ADP-induced pressure increase after administration of clopidogrel” value is listed as “the increase was suppressed”.

As for `Nc1ncnc2c1ncn2[C@@H]1O[C@H](COP(=O)(O)OP(=O)(O)O)[C@@H](O)[C@H]1O` [ADP, adenosine diphosphate], the “amount of platelets adhered to the comb portion” value in the experiment on platelets [4] is listed as “increase in the amount of platelets adhered to the comb portion, which occurred in an ADP concentration-dependent manner”. Also, the “pressure increase in the pump on addition of ADP” value with platelets [3] (blood anticoagulated with citric acid, ADP final concentration 2 nM, flow rate 20 μl/min) is “caused pressure increase”.

B1: ReoPro: ReoPro (Eli lilly), an antibody against the receptor GPIIb/IIIa on the platelet membrane (antibody, chains of the INN, looked up, V domains shown)
VH: EVQLQQSGTVLARPGASVKMSCEASGYTFTNYWMHWVKQRPGQGLEWIGAIYPGNSDTSYIQKFKGKAKLTAVTSTTSVYMELSSLTNEDSAVYYCTLYDGYYVFAYWGQGTLVTVSA
VL: EIVLTQSPVTLSVTPGDSVSLSCRASRDISNNLHWFQQTSHESPRLLIKYASQSMSGIPSRFSGSGSGTDFTLSINSVETEDFGMYFCQQTNSWPYTFGGGTKLEIK
modifications: Fab
notes: ReoPro (Eli lilly), an antibody against the receptor GPIIb/IIIa on the platelet membrane
Take B1: the “anti-platelet effect under low shear stress” value with platelets [5] is listed as “rather strong anti-platelet effect”.
